Literature values, collected in patent US20260167972A1, “AMINO ACID DERIVATIVES AS NOVEL DELIVERY AGENTS FOR FUNCTIONAL DELIVERY OF OLIGONUCLEOTIDES” (University of Rochester, priority 2022, published 2026).
Entries after “also recorded” stand apart in the source; their conditions may differ.

System: human A549 lung adenocarincoma cells
Details: cyclic peptide complexed with Rh-siRNA; compared with naked Rh-siRNA; cited from earlier work

Substance | Rh-siRNA cellular/cytosolic delivery
Ac-C(FKFE)2CG-NH2 | improved Rh-siRNA cellular delivery compared with naked Rh-siRNA
Ac-C(WR)4CG-NH2 | improved Rh-siRNA cellular delivery compared with naked Rh-siRNA; also recorded: significantly enhanced cytosolic delivery of Rh-siRNA
